Measurements as given in US20230065416A1, “CLATHRIN-CHIMETIC ANTIBODY RECEPTOR CONSTRUCTS FOR IMMUNE CELL ACTIVATION THERAPY IN VIVO” (NANOTOMER, INC., priority 2020, published 2023).
Where two headings read alike, the source gives them in different places.

Experiments:
[1] = Trafficking of Protin-102 in a B6 mouse, imaging 24 hours post-injection; assay type: in vivo
Protocol: The clathrin heavy chains were labeled with CF680 dye, a cyanine-based dye that reacts with alkyne and is commonly used for labeling antibodies. The clathrin heavy chains were then injected into a C57BL/6 (B6) mouse, and imaging was performed 24 hours post-injection.

4T1 murine breast cancer = assay: Therapeutic study in BALB/c mice bearing 4T1 tumors; assay type: in vivo, mouse
Protocol: (§1) When the tumor size reached approximately 100 mm3, mice were randomly divided into three groups (n=6). […] The injection schedule was twice a week for two weeks. The tumor size and body weight of the mice were monitored during the treatment course. The length (l) and width (w) of the tumor were measured by a digital vernier caliper, and tumor volume (V) was defined as: […]V=l×w2/2. The tumor growth inhibition (TGI) was estimated by a following equation: TGI (%)=(Vc−Vt)/(Vc−Vi)×100, where Vc is the volume of the control tumor at the end of the study, Vt is the volume of drug-treated tumor at the end of the study, and Vi is the volume of tumor at the initial treatment.
Before the diameter of tumor reached approximately 20 mm, the mice were euthanized, and lungs, livers, kidneys, hearts, pancreas, spleen, tumor, non-drain inguinal lymph nodes (far from tumor), and drain inguinal lymph nodes (located near tumor) were harvested and embedded in optimum cutting temperature (OCT) compound (TISSUE TEK™; SAKURA FINETEK™; Torrance, Calif.).
Representative photos for tumors from each group on day 27 post-implant are shown in top images of FIG. 14B. We evaluated the tumor growth inhibition (TGI) rate of each group (see the details in Method).

B16 melanoma = assay: Therapeutic study in C57BL/6 mice bearing B16 tumors; assay type: in vivo, mouse
Source text: as §1, with “BALB/c (female; 7-8 weeks) were subcutaneously implanted by 4T1 (100,000 cells; ATCC® CRL-2539™) on left 4th mammary glands. C57BL/6 (female; 7-8 weeks) were subcutaneously inoculated by B16 melanoma cells (100,000 cells; ATCC® CRL-6322™) or Lewis lung carcinoma line 1 cells (LLC1) (100,000 cells; ATCC® CRL-1642™) on right rear flanks. When” for “When”
Encouraged by the therapeutic effects for 4T1 tumor model, these protein-drug conjugates were further investigated for cancer therapy in a B16 (melanoma) or LLC1 (lung cancer)-bearing C57BL/6 mice. Drugs were now injected into mice having a tumor volume of approximately 100 mm3 according to the injection schedule identical to the 4T1 study.

[2] = test system: Lewis lung carcinoma line 1 (LLC1); assay: Therapeutic study in C57BL/6 mice bearing LLC1 tumors; assay type: in vivo, mouse; conditions: LLC1-bearing C57BL/6 mice; total dose of TAXOL® 32 μg/kg; n=6
Protocol: as §1

ovarian carcinoma = conditions: cited from earlier work
breast cancer = conditions: cited from earlier work

For Protin-102: clathrin heavy chain, the “distribution among lymph nodes” value ([1]; compared with axillary and inguinal lymph nodes) was “concentration in the mesenteric lymph nodes” and the “organ with the highest level of signal” value ([1]; labeled with CF680) was “liver”.
With `CC(=O)O[C@H]1C(=O)[C@@]2(C)[C@H]([C@H](OC(=O)c3ccccc3)[C@]3(O)C[C@H](OC(=O)[C@H](O)[C@@H](NC(=O)c4ccccc4)c4ccccc4)C(C)=C1C3(C)C)[C@]1(OC(C)=O)CO[C@@H]1C[C@@H]2O` [TAXOL®, 5beta, 20-epoxy-1,2alpha, 4,7beta, 10beta, 13alpha-hexahydroxytax-11-en-9-one 4,10-diacetate 2-benzoate 13-ester with (2R,3S)—N-benzoyl-3-phenylisoserine] the “final volume of the tumor” value (4T1 murine breast cancer; 4T1, day 27 post-implant, i.v. 2 times per week for 2 weeks, total dose of TAXOL® 32 μg/kg, n=6) was 1.70±0.42 ×103 mm3, the “tumor growth inhibition (TGI) rate” value (4T1 murine breast cancer; 4T1, end of study, identical dose of TAXOL® (8 μg/kg per injection), n=6) was 26.2±1.2% and the “nodules in the lung (metastasis of 4T1 tumor)” value (4T1 murine breast cancer; 4T1-bearing mice, day 27 post-implant) was “nodules were widely located in the lung”. For the same molecule, the TGI (B16 melanoma; B16) was 47.3±1.2%, the “tumor volume on the final day” value (B16 melanoma; B16-bearing C57BL/6 mice, total dose of TAXOL® 32 μg/kg, n=6) was 1.29±0.50 ×103 mm3 and the “tumor volume on the final day” value [2] was 1.21±0.31 ×103 mm3. For the same molecule, the Response rate (ovarian carcinoma; regimen 135/24) was 13.2%, the “Survival, median” value (ovarian carcinoma; regimen 135/24) was 10.7 months and the “Time to Progression, median” value (ovarian carcinoma; regimen 135/24) was 2.8 months. The Response rate (ovarian carcinoma; regimen 155/3 as printed) was 15.2%, the “Time to Progression, median” value (ovarian carcinoma; regimen 155/3 as printed) was 3.1 months and the Response rate (ovarian carcinoma; regimen 175/3 (mg/m2 / infusion h)) was 14.6%. The “Survival, median” value (ovarian carcinoma; regimen 175/3) was 11.5 months, the “Time to Progression, median” value (ovarian carcinoma; regimen 175/3) was 4.4 months and the Response rate (ovarian carcinoma; regimen 175/4) was 21.7%. For the same molecule, the “Survival, median” value (ovarian carcinoma; regimen 175/4) was 11.8 months, the “Time to Progression, median” value (ovarian carcinoma; regimen 175/4) was 4.2 months and the Response rate (breast cancer; regimen 135/3) was 22%. For the same molecule, the “Survival, median” value (breast cancer; regimen 135/3) was 10.5 months, the “Time to Progression, median” value (breast cancer; regimen 135/3) was 3.0 months and the Response rate (breast cancer; regimen 175/3) was 28%. For the same molecule, the “Survival, median” value (breast cancer; regimen 175/3) was 11.7 months and the “Time to Progression, median” value (breast cancer; regimen 175/3) was 4.2 months.
